The text below walks through data of ChEMBL document CHEMBL4376850, “1-Benzylpyrrolidine-3-amine-based BuChE inhibitors with anti-aggregating, antioxidant and metal-chelating properties as multifunctional agents against Alzheimer's disease” (Eur J Med Chem, 2020).

Calls of active or inactive are those of the source. The rule behind the calls is not given here. Some results are limits rather than exact numbers.

For one test, the target named is Beta-secretase 1 (Homo sapiens, UniProt P56817). Conditions: 50 uM.
Beta-secretase 1, sequence (P56817 whole entry): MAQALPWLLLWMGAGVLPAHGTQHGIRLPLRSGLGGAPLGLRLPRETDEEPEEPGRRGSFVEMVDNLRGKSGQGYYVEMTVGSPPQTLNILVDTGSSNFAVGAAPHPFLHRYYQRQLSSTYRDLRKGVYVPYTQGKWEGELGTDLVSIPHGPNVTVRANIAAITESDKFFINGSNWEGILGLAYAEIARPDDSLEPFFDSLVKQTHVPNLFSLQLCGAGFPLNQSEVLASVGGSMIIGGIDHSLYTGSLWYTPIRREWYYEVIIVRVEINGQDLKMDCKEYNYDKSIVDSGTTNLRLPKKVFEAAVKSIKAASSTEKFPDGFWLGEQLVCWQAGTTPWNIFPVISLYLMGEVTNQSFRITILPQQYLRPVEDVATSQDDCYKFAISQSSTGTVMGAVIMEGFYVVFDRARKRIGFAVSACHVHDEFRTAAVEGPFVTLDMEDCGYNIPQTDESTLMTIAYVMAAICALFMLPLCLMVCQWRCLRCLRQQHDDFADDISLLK
Test [1] concerns the target Microtubule-associated protein tau (Homo sapiens) (UniProt P10636). The test can be described thus: Inhibition of tau aggregation (unknown origin) at 10 uM expressed in Escherichia coli BL21 (DE3) incubated for 24 hrs by thioflavin T-based fluorometric assay relative to control.
Test [2] deals with Acetylcholinesterase (Electrophorus electricus) (UniProt O42275). The test can be described thus: Inhibition of Electrophorus electricus AChE at 10 uM using acetylthiocholine iodide as substrate preincubated for 5 mins followed by substrate addition and measured after 5 mins by Ellman's method relative to control. (In Ellman's method for cholinesterases, released thiocholine reacts with DTNB.)
Acetylcholinesterase (Electrophorus electricus), sequence (O42275 24-633 limits assumed): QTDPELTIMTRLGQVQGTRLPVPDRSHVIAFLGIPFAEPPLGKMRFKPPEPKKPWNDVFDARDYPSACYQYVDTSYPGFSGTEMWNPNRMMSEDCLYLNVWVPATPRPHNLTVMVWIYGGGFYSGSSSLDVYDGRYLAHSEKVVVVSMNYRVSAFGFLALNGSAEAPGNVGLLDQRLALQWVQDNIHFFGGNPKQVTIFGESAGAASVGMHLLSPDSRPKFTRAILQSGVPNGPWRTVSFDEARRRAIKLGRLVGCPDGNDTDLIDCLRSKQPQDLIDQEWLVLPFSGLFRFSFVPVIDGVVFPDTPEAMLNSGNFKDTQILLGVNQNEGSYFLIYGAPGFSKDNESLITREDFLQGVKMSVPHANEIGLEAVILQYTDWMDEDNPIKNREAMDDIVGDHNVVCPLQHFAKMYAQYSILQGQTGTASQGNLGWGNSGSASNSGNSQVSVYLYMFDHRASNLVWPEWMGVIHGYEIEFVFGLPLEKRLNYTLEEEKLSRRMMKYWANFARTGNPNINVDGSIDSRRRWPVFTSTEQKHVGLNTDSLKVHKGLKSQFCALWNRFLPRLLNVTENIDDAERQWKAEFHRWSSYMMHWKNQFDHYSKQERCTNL

Test [3] addresses Amyloid-beta precursor protein (Homo sapiens) (UniProt P05067). As to conditions: at 10 µM.
Description: Inhibition of amyloid beta (1 to 42) (unknown origin) aggregation at 10 uM expressed in Escherichia coli BL21 (DE3) incubated for 24 hrs by thioflavin T-based fluorometric assay relative to control
Test [4] has as its target Cholinesterase (Equus caballus) (UniProt P81908). The test can be described thus: Inhibition of equine serum BuChE at 10 uM using butyrylthiocholine chloride as substrate pre-incubated for 5 mins followed by substrate addition and measured after 5 mins by Ellman's method relative to control.
Test [5] can be described thus: Metal chelating activity assessed as Cu2+-compound complex formation at 50 uM after 30 mins by UV-Visible spectrophotometric method.
A short description of test [6]: Antioxidant activity assessed as increase in total ferric ion reducing activity at 75 uM using FeCl3.H2O and TPTZ incubated for 30 mins by FRAP assay relative to control. Format: functional. The arrangement: scale not given: the % may be the effect or the level left.
Test [7] is described as follows: Antioxidant activity assessed as ABTS radical scavenging activity at 30 uM measured after 30 mins by spectrophotometric assay relative to control. Format: functional.
Test [8] in a line: Antioxidant activity assessed as increase in total ferric ion reducing activity at 150 uM using FeCl3.H2O and TPTZ incubated for 30 mins by FRAP assay relative to control. In kind it is functional. The arrangement: scale not given: the % may be the effect or the level left.
A short description of test [9]: Antioxidant activity assessed as ABTS radical scavenging activity at 30 uM measured after 60 mins by spectrophotometric assay relative to control. Format: functional.
Test [10] in a line: Antioxidant activity assessed as ABTS radical scavenging activity at 75 uM measured after 30 mins by spectrophotometric assay relative to control. In kind it is functional.
A short description of test [11]: Antioxidant activity assessed as increase in total ferric ion reducing activity at 75 uM using FeCl3.H2O and TPTZ incubated for 60 mins by FRAP assay relative to control. Also on record: scale not given: the % may be the effect or the level left. In kind it is functional.
A short description of test [12]: Antioxidant activity assessed as ABTS radical scavenging activity at 30 uM measured after 5 mins by spectrophotometric assay relative to control. Format: functional.
Test [13] is described as follows: Antioxidant activity assessed as ABTS radical scavenging activity at 150 uM measured after 30 mins by spectrophotometric assay relative to control. Format: functional.
Test [14] is described as follows: Antioxidant activity assessed as increase in total ferric ion reducing activity at 30 uM using FeCl3.H2O and TPTZ incubated for 5 mins by FRAP assay relative to control. In kind it is functional. Also on record: scale not given: the % may be the effect or the level left.
Test [15] can be described thus: Antioxidant activity assessed as ABTS radical scavenging activity at 150 uM measured after 60 mins by spectrophotometric assay relative to control. In kind it is functional.
A short description of test [16]: Antioxidant activity assessed as ABTS radical scavenging activity at 75 uM measured after 5 mins by spectrophotometric assay relative to control. Format: functional.
The nature of test [17]: Antioxidant activity assessed as increase in total ferric ion reducing activity at 150 uM using FeCl3.H2O and TPTZ incubated for 5 mins by FRAP assay relative to control. Format: functional. The arrangement: scale not given: the % may be the effect or the level left.
The nature of test [18]: Antioxidant activity assessed as ABTS radical scavenging activity at 75 uM measured after 60 mins by spectrophotometric assay relative to control. Format: functional.
Test [19] in a line: Antioxidant activity assessed as increase in total ferric ion reducing activity at 30 uM using FeCl3.H2O and TPTZ incubated for 30 mins by FRAP assay relative to control. Format: functional. Also on record: scale not given: the % may be the effect or the level left.
The nature of test [20]: Antioxidant activity assessed as increase in total ferric ion reducing activity at 150 uM using FeCl3.H2O and TPTZ incubated for 60 mins by FRAP assay relative to control. In kind it is functional. Also on record: scale not given: the % may be the effect or the level left.
The nature of test [21]: Antioxidant activity assessed as increase in total ferric ion reducing activity at 75 uM using FeCl3.H2O and TPTZ incubated for 5 mins by FRAP assay relative to control. The arrangement: scale not given: the % may be the effect or the level left. Format: functional.
Test [22] can be described thus: Antioxidant activity assessed as increase in total ferric ion reducing activity at 30 uM using FeCl3.H2O and TPTZ incubated for 60 mins by FRAP assay relative to control. Format: functional. The arrangement: scale not given: the % may be the effect or the level left.
Test [23] is described as follows: Antioxidant activity assessed as ABTS radical scavenging activity at 150 uM measured after 5 mins by spectrophotometric assay relative to control. Format: functional.
Another test addresses Cholinesterase (Equus caballus, UniProt P81908).

Amyloid-beta precursor protein (Homo sapiens), sequence (P05067 whole entry): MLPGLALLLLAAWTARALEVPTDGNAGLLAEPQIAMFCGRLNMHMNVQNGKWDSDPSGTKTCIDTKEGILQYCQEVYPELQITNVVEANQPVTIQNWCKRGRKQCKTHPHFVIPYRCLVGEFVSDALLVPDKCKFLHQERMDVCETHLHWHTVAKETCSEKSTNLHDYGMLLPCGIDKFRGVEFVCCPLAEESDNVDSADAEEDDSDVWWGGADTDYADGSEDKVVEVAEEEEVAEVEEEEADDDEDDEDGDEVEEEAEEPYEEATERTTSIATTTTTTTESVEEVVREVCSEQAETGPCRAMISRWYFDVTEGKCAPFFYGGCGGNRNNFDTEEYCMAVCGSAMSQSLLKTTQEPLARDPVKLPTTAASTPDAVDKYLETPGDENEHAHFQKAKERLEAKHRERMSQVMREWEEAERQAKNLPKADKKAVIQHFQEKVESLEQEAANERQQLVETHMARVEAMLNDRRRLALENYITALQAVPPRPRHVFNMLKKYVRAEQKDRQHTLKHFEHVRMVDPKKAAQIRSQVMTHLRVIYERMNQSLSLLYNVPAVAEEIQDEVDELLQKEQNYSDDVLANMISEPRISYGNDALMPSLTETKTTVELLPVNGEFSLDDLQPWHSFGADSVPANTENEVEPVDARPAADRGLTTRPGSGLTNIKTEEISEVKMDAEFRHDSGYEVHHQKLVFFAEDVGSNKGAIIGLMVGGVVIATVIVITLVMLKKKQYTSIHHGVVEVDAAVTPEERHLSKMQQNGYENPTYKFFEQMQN
Cholinesterase (Equus caballus), sequence (P81908 whole entry): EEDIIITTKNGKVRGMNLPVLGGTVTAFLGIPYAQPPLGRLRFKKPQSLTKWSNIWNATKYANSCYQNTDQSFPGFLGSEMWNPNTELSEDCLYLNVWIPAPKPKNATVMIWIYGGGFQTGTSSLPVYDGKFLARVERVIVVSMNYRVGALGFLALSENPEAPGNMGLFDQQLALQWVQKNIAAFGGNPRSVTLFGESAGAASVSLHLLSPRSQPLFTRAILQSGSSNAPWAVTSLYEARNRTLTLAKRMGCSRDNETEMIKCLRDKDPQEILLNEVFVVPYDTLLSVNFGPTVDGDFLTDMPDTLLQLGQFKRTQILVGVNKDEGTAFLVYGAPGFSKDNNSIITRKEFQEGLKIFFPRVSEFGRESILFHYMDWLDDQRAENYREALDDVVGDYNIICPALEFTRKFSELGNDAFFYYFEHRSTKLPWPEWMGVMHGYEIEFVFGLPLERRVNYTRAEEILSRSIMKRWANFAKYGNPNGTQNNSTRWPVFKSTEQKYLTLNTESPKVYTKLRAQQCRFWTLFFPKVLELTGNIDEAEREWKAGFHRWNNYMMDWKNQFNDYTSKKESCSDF
Microtubule-associated protein tau (Homo sapiens), sequence (P10636 whole entry): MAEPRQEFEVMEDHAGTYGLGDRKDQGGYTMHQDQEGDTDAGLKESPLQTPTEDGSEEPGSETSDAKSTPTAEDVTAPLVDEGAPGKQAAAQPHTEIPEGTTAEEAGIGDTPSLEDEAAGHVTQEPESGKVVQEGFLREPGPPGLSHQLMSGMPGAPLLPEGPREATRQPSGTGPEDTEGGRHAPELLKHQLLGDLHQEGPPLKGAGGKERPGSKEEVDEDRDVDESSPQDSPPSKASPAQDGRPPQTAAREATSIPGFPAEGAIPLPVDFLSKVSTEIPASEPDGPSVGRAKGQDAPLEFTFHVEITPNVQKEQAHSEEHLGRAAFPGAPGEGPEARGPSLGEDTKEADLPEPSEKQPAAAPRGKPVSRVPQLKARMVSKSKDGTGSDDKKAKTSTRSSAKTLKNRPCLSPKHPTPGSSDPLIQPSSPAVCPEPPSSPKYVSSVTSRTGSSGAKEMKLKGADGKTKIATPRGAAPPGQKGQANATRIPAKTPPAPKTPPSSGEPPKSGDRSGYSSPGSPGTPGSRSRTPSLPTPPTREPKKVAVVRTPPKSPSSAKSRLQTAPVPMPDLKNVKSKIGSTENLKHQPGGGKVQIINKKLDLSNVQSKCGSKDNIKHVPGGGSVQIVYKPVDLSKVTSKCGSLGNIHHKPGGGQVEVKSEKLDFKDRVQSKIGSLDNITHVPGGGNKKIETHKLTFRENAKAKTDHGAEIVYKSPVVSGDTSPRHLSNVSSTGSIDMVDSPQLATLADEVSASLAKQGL
Cholinesterase, sequence (P81908 whole entry): as the sequence (P81908 whole entry) above

Turning to `O=C(CN1CCN(CCc2ccccc2)CC1)NC1CCN(Cc2ccccc2)C1` (stereo unspecified), the inhibition (in general, the share of the control response that was lost under treatment) is 48.6% against Beta-secretase 1; 61.3% in test [1]; below 10% in test [2]; 15.2% in [3]; 15.3% in test [4].

In the case of `O=C(CN1CCN(C(c2ccccc2)c2ccccc2)CC1)NC1CCN(Cc2ccccc2)C1` (stereo unspecified), the inhibition against Beta-secretase 1 is 40%; in test [1], 61.2%; in test [2], below 10%; in [3], 27.9%; in [4] it was below 10%.

As to `O=C(CN1CCN(Cc2ccccc2)CC1)NC1CCN(Cc2ccccc2)C1` (stereo unspecified), the inhibition against Beta-secretase 1 is 40.7%; in test [1], 66.7%; in test [2], below 10%; in [3] it was 37.4%; in test [4] it was 17.8%.

With `O=C(CCN1CCC(CCc2ccccc2)CC1)NC1CCN(Cc2ccccc2)C1` (stereo unspecified), the inhibition against Beta-secretase 1 is below 10%; in [1], 57.9%; in test [2], 32.9%; in test [3], 47.8%; in test [4], 16.3%.

As to `O=C(CN1CCCC(c2ccccc2)C1)NC1CCN(Cc2ccccc2)C1` (stereo unspecified), the inhibition at Beta-secretase 1 came to 14.7%; in test [1], 43.6%; in test [2] it was 30.6%; in test [3], 38.8%; in [4] it was 46%.

As for `c1ccc(CN2CCC(NCCN3CCN(c4ccccc4)CC3)C2)cc1` (stereo unspecified), in [5], the result was Active. The Activity in test [6] was 54%; in test [7], 71%; in test [8] it was 68%; in test [9] it was 80%; in [10], 78%; in [11], 68%. Moreover, the Activity in test [12] is 42%; in test [13] it was 98%; in [14] it was 15%; in test [15], 99%; in test [16] it was 50%; in [17], 55%. For the same molecule, the Activity in test [18] was 85%; in [19] it was 39%; in test [20], 79%; in test [21], 23%; in test [22], 55%; in test [23], 76%. Moreover, the inhibition on Beta-secretase 1 was 40.7%; in test [1], 79.5%; in [2] it was below 10%; in test [3] it was 38.5%; in test [4], 23.9%.

For `c1ccc(CCC2CCN(CCCNC3CCN(Cc4ccccc4)C3)CC2)cc1` (stereo unspecified), the inhibition at Beta-secretase 1 is 17%; in test [1], 52.8%; in test [2], 34.9%; in [3], 36.3%; in test [4], 25.6%.

In the case of `O=C(CN1CCC(c2ccccc2)CC1)NC1CCN(Cc2ccccc2)C1` (stereo unspecified), the outcome in [5] was Active. For the same molecule, the inhibition is 48.4% on Beta-secretase 1; 53.6% in test [1]; below 10% in test [2]; 43.7% in [3]; 33.3% in test [4].

As for `c1ccc(CN2CCC(NCCN3CCC(c4ccccc4)CC3)C2)cc1` (stereo unspecified), in test [5], the result was Active. Also, the Activity in test [6] turned out to be 4%; in test [7], 24%; in [8], 6%; in test [9], 31%; in test [10] it was 39%; in test [11], 6%. Also, the Activity stood at 13% in test [12]; 75% in test [13]; 2% in test [14]; 84% in test [15]; 15% in test [16]; 10% in test [17]. Moreover, the Activity in test [18] was determined as 48%; in [19], 3%; in test [20] it was 8%; in [21], 0%; in test [22], 3%; in test [23], 37%. Also, the inhibition at Beta-secretase 1 was 11.8%; in test [1] it was 68.1%; in test [2], below 10%; in test [3], 37.4%; in test [4] it was 45.5%.

As for `O=C(CN1CCN(c2ccccc2)CC1)NC1CCN(Cc2ccccc2)C1` (stereo unspecified), the Activity in test [6] was found to be 44%; in test [7] it was 50%; in test [8] it was 58%; in test [9] it was 62%; in test [10] it was 49%; in [11] it was 60%. Moreover, the Activity was 23% in test [12]; 66% in [13]; 10% in [14]; 76% in [15]; 23% in [16]; 44% in test [17]. The Activity in [18] stood at 59%; in test [19], 33%; in test [20] it was 72%; in [21], 14%; in [22], 49%; in [23], 36%. For the same molecule, the inhibition against Beta-secretase 1 is 43.7%; in [1] it was 74.8%; in test [2], below 10%; in test [3], 34.5%; in test [4] it was below 10%.

For the molecule `c1ccc(CCN2CCN(CCNC3CCN(Cc4ccccc4)C3)CC2)cc1` (stereo unspecified), the Activity in test [6] amounted to 15%; in test [7], 28%; in test [8], 40%; in [9], 34%; in test [10] it was 41%; in test [11], 18%. In addition, the Activity in test [12] came out at 14%; in [13], 73%; in [14], 8%; in test [15], 82%; in test [16], 22%; in test [17] it was 39%. Besides, the Activity in test [18] worked out at 48%; in test [19], 9%; in test [20] it was 43%; in test [21], 5%; in test [22] it was 10%; in [23] it was 46%. Also, the inhibition at Beta-secretase 1 is 33.5%; in test [1] it was 59.6%; in [2], below 10%; in test [3] it was 34.7%; in [4], 25.7%.

As for `Cc1c(C)c2c(c(C)c1O)CCC(C)(C(=O)O)O2` (stereo unspecified), the Activity in test [6], in test [7], in test [8], in test [9], in [10] and in test [11] was 100% throughout. Also, the Activity in test [12], in test [13], in [14], in test [15], in test [16] and in test [17] was 100% each time. The Activity in test [18], in test [19], in test [20], in test [21], in test [22] and in test [23] was 100% in each case.

Consider `O=C(CN1CCCC(CCc2ccccc2)C1)NC1CCN(Cc2ccccc2)C1` (stereo unspecified), for which the inhibition against Beta-secretase 1 worked out at 28.8%; in [2], 26.7%. Also, on Cholinesterase, the IC50 (in general, the concentration needed to halve the response being measured) is 10.3 µM.

For `O=C(CN1CCC(CCc2ccccc2)CC1)NC1CCN(Cc2ccccc2)C1` (stereo unspecified), the inhibition was 50.5% against Beta-secretase 1; 53.5% in test [1]; below 10% in [2]; 48.3% in [3]; 33.1% in test [4].
